Assay results from the NIST ThermoML archive (doi:10.1016/j.jct.2012.03.015).
Numbers after ± are expanded uncertainties.

Assay: activity coefficient (dimensionless); of the first substance listed, at infinite dilution; xn = mol fraction of the nth substance listed
Conditions: 101 kPa, Liquid, Chromatography, x1 = 0

CCCCO [butan-1-ol] + COCC[N+]1(C)CCCC1.O=S(=O)([N-]S(=O)(=O)C(F)(F)F)C(F)(F)F
activity coefficient (318.15 K): 2.87 ± 0.2
activity coefficient (328.15 K): 2.6 ± 0.2
activity coefficient (338.15 K): 2.35 ± 0.16
activity coefficient (348.15 K): 2.16 ± 0.15
activity coefficient (358.15 K): 1.98 ± 0.13
activity coefficient (368.15 K): 1.84 ± 0.12

CCC(C)O (stereo unspecified) [butan-2-ol] + COCC[N+]1(C)CCCC1.O=S(=O)([N-]S(=O)(=O)C(F)(F)F)C(F)(F)F
activity coefficient (318.15 K): 2.4 ± 0.2
activity coefficient (328.15 K): 2.19 ± 0.15
activity coefficient (338.15 K): 2 ± 0.14
activity coefficient (348.15 K): 1.85 ± 0.12
activity coefficient (358.15 K): 1.72 ± 0.12
activity coefficient (368.15 K): 1.61 ± 0.11

CCCC=O [butanal] + COCC[N+]1(C)CCCC1.O=S(=O)([N-]S(=O)(=O)C(F)(F)F)C(F)(F)F
activity coefficient (318.15 K): 0.808 ± 0.052
activity coefficient (328.15 K): 0.823 ± 0.053
activity coefficient (338.15 K): 0.838 ± 0.054
activity coefficient (348.15 K): 0.851 ± 0.055
activity coefficient (358.15 K): 0.864 ± 0.055
activity coefficient (368.15 K): 0.876 ± 0.056

C1CCCCCC1 [cycloheptane] + COCC[N+]1(C)CCCC1.O=S(=O)([N-]S(=O)(=O)C(F)(F)F)C(F)(F)F
activity coefficient (318.15 K): 15.3 ± 1
activity coefficient (328.15 K): 14.1 ± 1
activity coefficient (338.15 K): 13.1 ± 0.9
activity coefficient (348.15 K): 12.3 ± 0.8
activity coefficient (358.15 K): 11.5 ± 0.8
activity coefficient (368.15 K): 10.8 ± 0.7

C1CCCCC1 [cyclohexane] + COCC[N+]1(C)CCCC1.O=S(=O)([N-]S(=O)(=O)C(F)(F)F)C(F)(F)F
activity coefficient (318.15 K): 11.1 ± 0.8
activity coefficient (328.15 K): 10.4 ± 0.7
activity coefficient (338.15 K): 9.69 ± 0.66
activity coefficient (348.15 K): 9.22 ± 0.63
activity coefficient (358.15 K): 8.65 ± 0.59
activity coefficient (368.15 K): 8.23 ± 0.56

C1=CCCCC1 [cyclohexene] + COCC[N+]1(C)CCCC1.O=S(=O)([N-]S(=O)(=O)C(F)(F)F)C(F)(F)F
activity coefficient (318.15 K): 6.04 ± 0.41
activity coefficient (328.15 K): 5.82 ± 0.4
activity coefficient (338.15 K): 5.63 ± 0.38
activity coefficient (348.15 K): 5.44 ± 0.37
activity coefficient (358.15 K): 5.27 ± 0.36
activity coefficient (368.15 K): 5.1 ± 0.35

C1CCCCCCC1 [cyclooctane] + COCC[N+]1(C)CCCC1.O=S(=O)([N-]S(=O)(=O)C(F)(F)F)C(F)(F)F
activity coefficient (318.15 K): 20.7 ± 1.4
activity coefficient (328.15 K): 19 ± 1.3
activity coefficient (338.15 K): 17.4 ± 1.2
activity coefficient (348.15 K): 16.2 ± 1.1
activity coefficient (358.15 K): 15 ± 1
activity coefficient (368.15 K): 14 ± 1

C1CCCC1 [cyclopentane] + COCC[N+]1(C)CCCC1.O=S(=O)([N-]S(=O)(=O)C(F)(F)F)C(F)(F)F
activity coefficient (318.15 K): 7.52 ± 0.51
activity coefficient (328.15 K): 7.19 ± 0.49
activity coefficient (338.15 K): 6.85 ± 0.47
activity coefficient (348.15 K): 6.54 ± 0.45
activity coefficient (358.15 K): 6.26 ± 0.43
activity coefficient (368.15 K): 5.98 ± 0.41

CCCCCCCCCC [decane] + COCC[N+]1(C)CCCC1.O=S(=O)([N-]S(=O)(=O)C(F)(F)F)C(F)(F)F
activity coefficient (318.15 K): 83.1 ± 5.7
activity coefficient (328.15 K): 75.5 ± 5.2
activity coefficient (338.15 K): 68.1 ± 4.7
activity coefficient (348.15 K): 61.8 ± 4.2
activity coefficient (358.15 K): 56.1 ± 3.8
activity coefficient (368.15 K): 51.3 ± 3.5

CCOCC [diethyl ether] + COCC[N+]1(C)CCCC1.O=S(=O)([N-]S(=O)(=O)C(F)(F)F)C(F)(F)F
activity coefficient (318.15 K): 2.79 ± 0.19
activity coefficient (328.15 K): 2.79 ± 0.19
activity coefficient (338.15 K): 2.78 ± 0.19
activity coefficient (348.15 K): 2.78 ± 0.19
activity coefficient (358.15 K): 2.78 ± 0.19
activity coefficient (368.15 K): 2.78 ± 0.19

CC(C)OC(C)C [diisopropyl ether] + COCC[N+]1(C)CCCC1.O=S(=O)([N-]S(=O)(=O)C(F)(F)F)C(F)(F)F
activity coefficient (318.15 K): 6.63 ± 0.45
activity coefficient (328.15 K): 6.55 ± 0.45
activity coefficient (338.15 K): 6.46 ± 0.44
activity coefficient (348.15 K): 6.39 ± 0.44
activity coefficient (358.15 K): 6.31 ± 0.43
activity coefficient (368.15 K): 6.23 ± 0.42

CCCOCCC [dipropyl ether] + COCC[N+]1(C)CCCC1.O=S(=O)([N-]S(=O)(=O)C(F)(F)F)C(F)(F)F
activity coefficient (318.15 K): 7.22 ± 0.49
activity coefficient (328.15 K): 7.03 ± 0.48
activity coefficient (338.15 K): 6.82 ± 0.46
activity coefficient (348.15 K): 6.64 ± 0.45
activity coefficient (358.15 K): 6.47 ± 0.44
activity coefficient (368.15 K): 6.32 ± 0.43

CCO [ethanol] + COCC[N+]1(C)CCCC1.O=S(=O)([N-]S(=O)(=O)C(F)(F)F)C(F)(F)F
activity coefficient (318.15 K): 1.77 ± 0.12
activity coefficient (328.15 K): 1.63 ± 0.11
activity coefficient (338.15 K): 1.48 ± 0.1
activity coefficient (348.15 K): 1.38 ± 0.09
activity coefficient (358.15 K): 1.28 ± 0.08
activity coefficient (368.15 K): 1.2 ± 0.08

CCOC(C)=O [ethyl acetate] + COCC[N+]1(C)CCCC1.O=S(=O)([N-]S(=O)(=O)C(F)(F)F)C(F)(F)F
activity coefficient (318.15 K): 0.95 ± 0.06
activity coefficient (328.15 K): 0.97 ± 0.06
activity coefficient (338.15 K): 0.98 ± 0.06
activity coefficient (348.15 K): 1 ± 0.06
activity coefficient (358.15 K): 1.02 ± 0.06
activity coefficient (368.15 K): 1.03 ± 0.06

CCc1ccccc1 [ethylbenzene] + COCC[N+]1(C)CCCC1.O=S(=O)([N-]S(=O)(=O)C(F)(F)F)C(F)(F)F
activity coefficient (318.15 K): 2.23 ± 0.15
activity coefficient (328.15 K): 2.24 ± 0.15
activity coefficient (338.15 K): 2.24 ± 0.15
activity coefficient (348.15 K): 2.25 ± 0.15
activity coefficient (358.15 K): 2.25 ± 0.15
activity coefficient (368.15 K): 2.26 ± 0.15

CCCCCCC [heptane] + COCC[N+]1(C)CCCC1.O=S(=O)([N-]S(=O)(=O)C(F)(F)F)C(F)(F)F
activity coefficient (318.15 K): 28 ± 1.9
activity coefficient (328.15 K): 25.9 ± 1.8
activity coefficient (338.15 K): 24.2 ± 1.7
activity coefficient (348.15 K): 22.6 ± 1.5
activity coefficient (358.15 K): 21.1 ± 1.4
activity coefficient (368.15 K): 19.7 ± 1.3
